The values below come from ChEMBL document CHEMBL1133028, “The synthesis and in vitro cytotoxic studies of novel oxa-spermidine derivatives and homologues” (2000).

For orientation: GI50 means the concentration that inhibits growth by half. Read a low GI50 as more potent growth inhibition.

Common to all, as to type: functional
The species entered for assay [1] is Homo sapiens. Put plainly: Compound was evaluated for the growth inhibition of cell cultures derived from human prostate cancer tumors.
Assay [2] concerns Panel breast (Carcinoma cell lines). Put plainly: (§1) Compound was evaluated for the growth inhibition of cell cultures derived from human breast cancer tumors.
The subject of the next assay is leukaemia cell line. Put plainly: Compound was evaluated for the growth inhibition of cell cultures derived from human leukemia tumors.
Assay [3] has as its system Panel renal (Carcinoma cell lines). The assay is described as follows: Compound was evaluated for the growth inhibition of cell cultures derived from human renal cancer tumors.
In assay [4] the test system is Lung cancer tumor cell line. The assay is described as follows: Compound was evaluated for the growth inhibition of cell cultures derived from human non small cell lung cancer tumors.
In assay [5] the test system is Tumor Cell line. The assay is described as follows: Mean values over all human tumor cell lines were determined.
Another assay relates to Ovarian cancer cell line. The assay is described as follows: (§2) Compound was evaluated for the growth inhibition of cell cultures derived from human ovarian cancer tumors.
In a further assay the test system is Melanoma tumor cell line. Put plainly: Compound was evaluated for the growth inhibition of cell cultures derived from human melanoma tumors.
Assay [6] has as its system Panel colon (Carcinoma cell lines). Put plainly: Compound was evaluated for the growth inhibition of cell cultures derived from human colon cancer tumors.
In assay [7] the test system is Panel CNS (Carcinoma cell lines). Put plainly: Compound was evaluated for the growth inhibition of cell cultures derived from human Cns cancer tumors.
The test system of the next assay is OVCAR-5. Put plainly: Compound was evaluated for the growth inhibition of OVCAR-5 ovarian cell lines. The conditions noted are these: Homo sapiens.
The test system of a further assay is IGROV-1. Put plainly: Compound was evaluated for the growth inhibition of […] ovarian cell lines. The conditions noted are these: Homo sapiens.
In assay [8] the test system is Tumor Cell line. The assay is described as follows: Compound was evaluated for the growth inhibition against panel of human tumor cell lines.
For assay [9], the system named is Tumor Cell line. Put plainly: Compound was evaluated for the growth inhibition of a panel of human tumor cell lines.
Assay [10] can be described thus: as §1.
Assay [11] is filed under the species Homo sapiens. Described as §2.

In the case of `Cc1cc(C)c(S(=O)(=O)N(CCCCCN)OCCCN)c(C)c1`, the GI50 in the assay filed under Homo sapiens [1] stood at 15.7 µM; in [2], 20.2 µM; with leukaemia cell line, 15.3 µM; in assay [3], 16.1 µM; in [4], 16.9 µM; with Tumor Cell line [5] it was 15.2 µM. Moreover, the GI50 with Ovarian cancer cell line came to 17.9 µM; in the assay on Melanoma tumor cell line, 18.2 µM; in [6], 16.2 µM; in [7], 16.9 µM.

For the compound `Cc1c(C)c(S(=O)(=O)N(CCCCN)OCCCN)c(C)c2c1OC(C)(C)CC2`, the GI50 was determined as 14.5 µM in the assay filed under Homo sapiens [1]; 28.4 µM in assay [2]; 26.8 µM with leukaemia cell line; 20.9 µM in assay [3]; 15.3 µM in assay [4]; 19.6 µM in the assay on Tumor Cell line [5]. For the same compound, the GI50 with Ovarian cancer cell line was 13.5 µM; with Melanoma tumor cell line, 19.1 µM; in [6], 20.3 µM; in [7] it was 18 µM.

Turning to `Cc1c(C)c(S(=O)(=O)N(CCCCCCN2C(=O)c3ccccc3C2=O)OCCCN2C(=O)c3ccccc3C2=O)c(C)c2c1OC(C)(C)CC2`, the GI50 was found to be 52.5 µM in the assay on OVCAR-5 and 3.27 µM in the assay on IGROV-1.

Consider `NCCCNOCCCN`, for which the GI50 in the assay with Tumor Cell line [8] is > 100 µM.

Take `Cc1c(C)c(S(=O)(=O)N(CCCCCN)OCCCN)c(C)c2c1OC(C)(C)CC2`: the GI50 in the assay listed under Homo sapiens [1] came out at 16.1 µM; in assay [2], 10 µM; in the assay on leukaemia cell line, 3.9 µM; in assay [3] it was 16.5 µM; in assay [4], 11.5 µM; in the assay with Tumor Cell line [5], 11.2 µM. Further, the GI50 in the assay with Ovarian cancer cell line came to 12.7 µM; in the assay with Melanoma tumor cell line, 10.9 µM; in assay [6], 9.8 µM; in [7], 9.6 µM.

With `Cc1c(C)c(S(=O)(=O)N(CCCN2C(=O)c3ccccc3C2=O)OCCCN2C(=O)c3ccccc3C2=O)c(C)c2c1OC(C)(C)CC2`, the GI50 came out at 52.5 µM in the assay with OVCAR-5 and 3.27 µM in the assay with IGROV-1.

For the compound `Cc1cc(C)c(S(=O)(=O)N(CCCCCCN)OCCCN)c(C)c1`, the GI50 in the assay listed under Homo sapiens [1] amounted to 15.4 µM; in [2], 23 µM; with leukaemia cell line, 19.5 µM; in assay [3], 17.5 µM; in [4] it was 22.4 µM; with Tumor Cell line [5], 18.3 µM. For the same compound, the GI50 worked out at 18 µM in the assay on Ovarian cancer cell line, 15.7 µM with Melanoma tumor cell line, 16.7 µM in assay [6] and 16.5 µM in [7].

In the case of `Cc1cc(C)c(S(=O)(=O)N(CCCN)OCCCN)c(C)c1`, the GI50 in the assay on Tumor Cell line [9] is > 100 µM.

For `Cc1c(C)c(S(=O)(=O)N(CCCCCCN)OCCCN)c(C)c2c1OC(C)(C)CC2`, the GI50 was 16.3 µM in the assay filed under Homo sapiens [1]; 10.2 µM in assay [2]; 4.1 µM in the assay with leukaemia cell line; 11.3 µM in [3]; 6.3 µM in [4]; 8.5 µM with Tumor Cell line [5]. The GI50 amounted to 4.7 µM with Ovarian cancer cell line, 10.7 µM with Melanoma tumor cell line, 7.2 µM in assay [6] and 5.6 µM in assay [7].

`Cc1c(C)c(S(=O)(=O)N(CCCCN2C(=O)c3ccccc3C2=O)OCCCN2C(=O)c3ccccc3C2=O)c(C)c2c1OC(C)(C)CC2`: the GI50 worked out at 52.5 µM with OVCAR-5 and 3.27 µM in the assay with IGROV-1.

Regarding `Cc1c(C)c(S(=O)(=O)N(CCCN)OCCCN)c(C)c2c1OC(C)(C)CC2`, the GI50 in the assay listed under Homo sapiens [1] was 14 µM; in assay [2], 15.8 µM; in the assay with leukaemia cell line, 13 µM; in [3], 14.7 µM; in assay [4] it was 14.2 µM; in the assay on Tumor Cell line [5], 14 µM. In addition, the GI50 in the assay with Ovarian cancer cell line turned out to be 12.6 µM; in the assay with Melanoma tumor cell line, 14.8 µM; in assay [6], 13.8 µM; in assay [7], 12.9 µM.

`Cc1c(C)c(S(=O)(=O)N(CCCCCON)OCCCN)c(C)c2c1OC(C)(C)CC2`: the GI50 in the assay filed under Homo sapiens [1] was 10.6 µM; in assay [10], 13.8 µM; in the assay on leukaemia cell line it was 6.3 µM; in assay [3] it was 14.3 µM; in assay [4], 13.5 µM; in the assay on Tumor Cell line [5] it was 12.5 µM. Also, the GI50 in the assay listed under Homo sapiens [11] was found to be 12.4 µM; in the assay on Melanoma tumor cell line, 13.7 µM; in assay [6], 12.8 µM; in assay [7], 14.9 µM.

For `Cc1c(C)c(S(=O)(=O)N(CCCCCN2C(=O)c3ccccc3C2=O)OCCCN2C(=O)c3ccccc3C2=O)c(C)c2c1OC(C)(C)CC2`, the GI50 was determined as 52.5 µM in the assay on OVCAR-5 and 3.27 µM in the assay with IGROV-1.

Consider `Cc1cc(C)c(S(=O)(=O)N(CCCCN)OCCCN)c(C)c1`, for which the GI50 in the assay filed under Homo sapiens [1] was 14.5 µM; in [2] it was 17.8 µM; in the assay with leukaemia cell line it was 11.8 µM; in assay [3] it was 18.2 µM; in assay [4], 18.5 µM; with Tumor Cell line [5], 16.4 µM. In addition, the GI50 was 17.2 µM in the assay listed under Homo sapiens [11], 18.1 µM in the assay on Melanoma tumor cell line, 13.3 µM in assay [6] and 18.1 µM in [7].
